Measurements from ChEMBL document CHEMBL3882244, “IL-8 Receptor Antagonists” (2007).

Columns and labels:
[1] = target: T1, C-X-C chemokine receptor type 2 (Homo sapiens, UniProt P25025); assay: Displacement of [125I]IL8 from recombinant human CXCR2 expressed in CHO cell membranes measured after 1 hr by TopCount scintillation counting method
T1 sequence (P25025 whole entry): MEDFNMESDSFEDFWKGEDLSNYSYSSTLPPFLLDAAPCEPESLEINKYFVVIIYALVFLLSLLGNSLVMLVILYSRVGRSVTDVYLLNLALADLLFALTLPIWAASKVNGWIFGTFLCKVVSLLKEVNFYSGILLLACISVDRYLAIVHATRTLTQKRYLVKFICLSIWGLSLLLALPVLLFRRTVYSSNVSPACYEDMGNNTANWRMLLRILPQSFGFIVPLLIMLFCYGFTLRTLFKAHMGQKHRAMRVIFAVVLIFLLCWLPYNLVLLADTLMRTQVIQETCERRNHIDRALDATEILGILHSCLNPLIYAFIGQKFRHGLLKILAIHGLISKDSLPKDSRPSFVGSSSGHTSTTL

[2] = target: T1, C-X-C chemokine receptor type 2; assay: Antagonist activity at CXCR2 (unknown origin) expressed in CHO-K1 cells co-expressing Galpha-16 assessed as inhibition of IL8-induced calcium mobilization measured after 10 mins by Fluo-4AM dye based FLIPR assay; format: functional, cell-based
Blood = assay: Inhibition of GROalpha-induced CD11b integrin expression on human neutrophils in human whole blood pretreated for 10 mins followed by GROalpha challenge measured after 10 mins by FITC/PE staining based flow cytometry; format: functional, tissue-based

SMILES	IC50 [1]	IC50 [2]	IC50 (Blood)
O=C(Nc1ccccc1Oc1ccccc1)Nc1ccc(Cl)c(S(=O)(=O)C2C[C@H]3CC[C@@H](C2)N3)c1O (some centres not stated)	< 30000 nM	5 to 600 nM	–
O=C(Nc1ccc(Cl)c(S(=O)(=O)C2CCNCC2)c1O)Nc1cccc2c1OC(F)(F)O2	< 30000 nM	5 to 600 nM	–
Cc1c(F)cccc1NC(=O)Nc1ccc(Cl)c(S(=O)(=O)C2CCNCC2)c1O	< 30000 nM	5 to 600 nM	500 to 2000 nM
O=C(Nc1ccc(Cl)c(S(=O)(=O)C2CCNCC2)c1O)Nc1cccc(F)c1Cl	< 30000 nM	5 to 600 nM	500 to 2000 nM
Cc1c(F)cccc1NC(=O)Nc1ccc(Cl)c(S(=O)(=O)[C@H]2CCCNC2)c1O [DANIRIXIN]	–	–	500 to 2000 nM
O=C(Nc1ccccc1OC(F)(F)F)Nc1ccc(Cl)c(S(=O)(=O)CC2CCNC2)c1O (configuration not stated)	< 30000 nM	5 to 600 nM	–
O=C(Nc1ccc(Cl)c(S(=O)(=O)[C@@H]2CCNC2)c1O)Nc1cccc(F)c1Cl	< 30000 nM	5 to 600 nM	–
O=C(Nc1ccc(Cl)c(S(=O)(=O)[C@H]2CCCNC2)c1O)Nc1cccc(F)c1Cl	–	5 to 600 nM	500 to 2000 nM
O=C(Nc1ccccc1Oc1ccccc1)Nc1ccc(Cl)c(S(=O)(=O)C2CCNCC2)c1O	–	5 to 600 nM	–
O=C(Nc1ccccc1OC(F)(F)F)Nc1ccc(Cl)c(S(=O)(=O)C2CCCNC2)c1O (configuration not stated)	–	5 to 600 nM	–
Cc1c(F)cccc1NC(=O)Nc1ccc(Cl)c(S(=O)(=O)[C@H]2CCNC2)c1O	–	5 to 600 nM	–
O=C(Nc1ccccc1OC(F)(F)F)Nc1ccc(Cl)c(S(=O)(=O)C2CCNCC2)c1O	–	5 to 600 nM	–
O=C(Nc1ccc(Cl)c(S(=O)(=O)[C@H]2CCNC2)c1O)Nc1cccc(F)c1Cl	–	5 to 600 nM	–
CCc1ccccc1NC(=O)Nc1ccc(Cl)c(S(=O)(=O)[C@@H]2CCNC2)c1O	< 30000 nM	5 to 600 nM	–
O=C(Nc1ccc(Cl)c(S(=O)(=O)C2C[C@H]3CC[C@@H](C2)N3)c1O)Nc1cccc(F)c1Cl (some centres not stated)	–	5 to 600 nM	–
Cc1c(F)cccc1NC(=O)Nc1ccc(Cl)c(S(=O)(=O)C2CNC2)c1O	< 30000 nM	5 to 600 nM	–
O=C(Nc1ccc(Cl)c(S(=O)(=O)C2CNC2)c1O)Nc1cccc(F)c1Cl	–	5 to 600 nM	–
O=C(Nc1cccnc1Cl)Nc1ccc(Cl)c(S(=O)(=O)C2CCNCC2)c1O	–	5 to 600 nM	–

SMILES	IC50 [1]	IC50 [2]	IC50 (Blood)
O=C(Nc1cccnc1Cl)Nc1ccc(Cl)c(S(=O)(=O)C2C[C@H]3CC[C@@H](C2)N3)c1O (some centres not stated)	–	5 to 600 nM	–
O=C(Nc1cccnc1Cl)Nc1ccc(Cl)c(S(=O)(=O)[C@H]2CCCNC2)c1O	< 30000 nM	–	500 to 2000 nM
CCOC(=O)N1CCC(S(=O)(=O)c2c(Cl)ccc(NC(=O)Nc3ccccc3Oc3ccccc3)c2O)CC1	< 30000 nM	5 to 600 nM	–
O=C(Nc1cccnc1Cl)Nc1ccc(Cl)c(S(=O)(=O)[C@H]2CCNC2)c1O	–	5 to 600 nM	500 to 2000 nM
O=C(Nc1ccccc1Oc1ccccc1)Nc1ccc(Cl)c(S(=O)(=O)[C@H]2CCNC2)c1O	–	5 to 600 nM	500 to 2000 nM
CCc1ccccc1NC(=O)Nc1ccc(Cl)c(S(=O)(=O)C2CCCNC2)c1O (configuration not stated)	–	5 to 600 nM	–
Cc1c(F)cccc1NC(=O)Nc1ccc(Cl)c(S(=O)(=O)[C@@H]2C[C@H]3CC[C@@H](C2)N3C)c1O	< 30000 nM	5 to 600 nM	–
O=C(Nc1ccc(Cl)c(S(=O)(=O)CC2CCNC2)c1O)Nc1cccc(F)c1Cl (configuration not stated)	–	5 to 600 nM	–
O=C(Nc1cccnc1Cl)Nc1ccc(Cl)c(S(=O)(=O)C2CNC2)c1O	< 30000 nM	5 to 600 nM	–
Cc1c(F)cccc1NC(=O)Nc1ccc(Cl)c(S(=O)(=O)C2C[C@H]3CC[C@@H](C2)N3)c1O (some centres not stated)	–	5 to 600 nM	–
O=C(Nc1ccc(Cl)c(S(=O)(=O)[C@@H]2CCNC2)c1O)Nc1cccc2c1OC(F)(F)O2	–	5 to 600 nM	–
O=C(Nc1ccc(Cl)c(S(=O)(=O)C2CCCNC2)c1O)Nc1cccc(Cl)c1Cl (configuration not stated)	< 30000 nM	5 to 600 nM	–
O=C(Nc1ccccc1OC(F)(F)F)Nc1ccc(Cl)c(S(=O)(=O)[C@@H]2CCNC2)c1O	–	5 to 600 nM	–
O=C(Nc1cccnc1Cl)Nc1ccc(Cl)c(S(=O)(=O)C2CCCNC2)c1O (configuration not stated)	–	5 to 600 nM	500 to 2000 nM
CCOC(=O)N1CCC(S(=O)(=O)c2c(Cl)ccc(NC(=O)Nc3cccc(F)c3C)c2O)CC1	–	5 to 600 nM	–
Cc1c(F)cccc1NC(=O)Nc1ccc(Cl)c(S(=O)(=O)CC2CCNC2)c1O (configuration not stated)	< 30000 nM	5 to 600 nM	–
CCc1ccccc1NC(=O)Nc1ccc(Cl)c(S(=O)(=O)C2CCNCC2)c1O	< 30000 nM	5 to 600 nM	–
CCOC(=O)N1CCC(S(=O)(=O)c2c(Cl)ccc(NC(=O)Nc3cccc(F)c3Cl)c2O)CC1	–	5 to 600 nM	–
